Assay results published in patent publication US20240181125A1, “COMPOSITIONS AND METHODS FOR SCARLESS WOUND HEALING IN DIABETES” (Washington University, priority 2022, published 2024).
Entries after “also recorded” stand apart in the source; their conditions may differ.

Tests used:
[1] = test system: dermal wounds of db/db mice; test: Example 3 dermal wound closure, subcutaneous ECG/gel; assay type: in vivo
Experimental: db/db (Diabetic, […]) mice were used as an animal wound model. Dermal wounds were created using sterile 5 mm biopsy punches to expose the underlying muscle fascia, followed by subcutaneous injection of either control gel (6 wt %) or ECG/gel (50 μg/mL ECG in 6 wt % gel). In addition, a subgroup of the dermally-wounded mice was left untreated as controls. The dermal wounds of all mice were observed every other day until recovery using a digital camera to record successive images as well as measuring wound size using digital calipers. Image analysis using ImageJ was also performed to do a blind measurement of wound size. Subgroups of the mice were sacrificed at three different time points: day 3, day 8, and day 16. Skin samples were collected from the sacrificed mice for histology, immunohistochemistry analysis, and Western blot studies.

[2] = In vitro release of peptide from hydrogel; assay type: physicochemical; conditions: loadings 10, 20, 50 μg/mL; three weeks
Experimental: To characterize the ECG release properties of the NIPAAm-based hydrogels disclosed herein, the following experiments were conducted. Hydrogel samples were synthesized with varying levels of ECG loading: 10 μg/mL, 20 μg/mL, and 50 μg/mL. The cumulative release of ECG from the hydrogel samples was assessed over a three-week period.
Wound dressings were fabricated by encapsulating PTβR2I in the hydrogel solution at 4° C. Briefly, PTβR2I solution was mixed with 6 wt. % hydrogel solution to reach final PTβR2I concentrations of 10 μg/mL, 20 μg/mL and 50 μg/mL. The mixtures were stirred at 4° C. for 12 hours. To determine PTβR2I release kinetics, the mixtures were first incubated at 37° C. to gel. After 1 hour, the supernatant was replaced by a release medium (DPBS with 1% P/S). The medium was then collected at pre-determined time points for 21 days, and a fresh release medium was added after each collection. The concentration of the released PTβR2I was determined by measuring the fluorescence intensity and calculating the corresponding concentration using a standard curve. The bioactivity of the released PTβR2I was evaluated by its ability to bind to the TβR2 on the HDFs. […] After 2 hours of incubation, the cells were washed three times with DPBS, and the fluorescence intensity was measured using a microplate reader (excitation/emission=485/535 nm).

HDF, HaCaT, HAECs, BMM = test: Example 4 in vitro survival, migration, cytokine and growth factor secretion with TGF-beta I and high glucose; assay type: cell-based, human, mouse
Description: Human dermal fibroblasts (HDF), human skin keratinocytes (HaCaT), human artery endothelial cells (HAECs), and mouse bone marrow-derived macrophages (BMM) were used to test the in vitro survival, migration, secretion of inflammatory cytokines, and angiogenic growth factors in the presence of TGF-beta I and high glucose content.
FIG. 4B is a Western blot of p38 and GAPDH (control) expression for dermal fibroblasts under high glucose levels. Untreated cells (control) were compared with cells exposed to 10 ng/ml of TGFβ with ECG treatments of 0 μg/mL, 10 μg/mL, and 1 μg/mL.

TGFβ1/p38 pathway = test: Immunoblotting of p-p38 in HDFs; assay type: cell-based, human; conditions: high glucose
Experimental: For in vitro tests, protein lysates were collected from HDFs. Pre-cooled cell scrapers were used to detach the cells, and the cells were re-suspended in RIPA lysis buffer with the inhibitor cocktail. For in vivo tests, wound skin tissues were washed three times with pre-cooled DPBS, dissected into small pieces, and re-suspended in RIPA lysis buffer containing protease and phosphatase inhibitors. Homogenization was then performed thereafter with an ultrasonic processor (Cole Parmer). After centrifugation at 12,000 g for 20 min, the supernatants were collected, and protein concentrations were measured using a Bradford protein assay kit (Bio-rad).
The protein samples were separated by 10% Mini-PROTEAN TGX stain-free precast gels (Bio-rad) and transferred onto an immune-blot PVDF membrane. The blots were washed three times with DPBS containing 0.1% Tween 20 (PBST), blocked with 5% milk powder in PBST buffer for 40 min, and incubated with primary antibodies at specific dilutions overnight at 4° C. The primary antibodies included rabbit GAPDH antibody (1:5000, Cell signaling), rabbit anti-a-smooth muscle actin (α-SMA) antibody (1:2000, Cell signaling), rabbit anti-phospho-Smad2(Ser465/467)/Smad3 (Ser423/425) (1:500, Cell signaling), and rabbit anti-phospho-p38 (1:500, Cell signaling). The membranes were washed three times with PBST and incubated with horseradish peroxidase (HRP)-conjugated secondary antibodies (1:2500). Immunoblots were then washed with PBST and detected with a WesternBright HRP substrate detection kit (Advansta). The ChemiDoc XPS+system (Bio-rad) was used to image the blots.

ECGLLPVGRPDRVWRLCK
p38 expression in wound tissues ([1]; Western blot vs control gel): suppressed; also recorded: downregulated | increase of blood vessel density and mature blood vessel density vs control ([1]; day 8): up to 4 fold | duration of initial rapid release of ECG from hydrogel [2]: 3 to 4 days | survival and migration of keratinocytes, fibroblasts, and endothelial cells (HDF, HaCaT, HAECs, BMM; presence of TGF-beta I): improved | angiogenic growth factor secretions (HDF, HaCaT, HAECs, BMM; various cell types): promoted | pro-inflammatory cytokines expression (HDF, HaCaT, HAECs, BMM; various cell types): suppressed

TGFβ1: growth factor used as stimulus, 10 ng/ml
increase in baseline phosphorylation of p38 relative to no TGFβ1 group (TGFβ1/p38 pathway): ~4 fold

Oc1ccc(-c2nc(-c3ccncc3)c(-c3ccc(F)cc3)[nH]2)cc1 [SB202190, reference compound]
p-p38 expression (TGFβ1/p38 pathway; with TGFβ1): notably downregulated
